# Laboratory results as given in patent US12624018B1, “Inhibitors of RIPK2 and medical uses thereof” (Odyssey Therapeutics, Inc., priority 2022, dated 2026).
# Target: T1, RIPK2 enzyme (Homo sapiens, UniProt O43353)
# T1 construct: purchased Carna 09-128
# Assay: RIPK2 inhibition (ADP-Glo Kinase Assay)
# Type: biochemical
# Conditions: RIPK2 5 nM, ATP 150 μM, MBP substrate, read-out: RIPK2 IC50
# Procedure, shortened: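 Human RIPK2 (5 nM) preincubated with compound 30 min at room temperature in 50 mM HEPES pH 7.5, 10 mM MgCl2, 2 mM DTT, 1 mM EGTA, 0.01% Brij-35, 0.05% BSA; native swine MBP as substrate. ADP formed quantified by ADP-Glo luminescence; percent inhibition relative to DMSO and no-enzyme controls.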
# T1 sequence (O43353 1-299 limits assumed): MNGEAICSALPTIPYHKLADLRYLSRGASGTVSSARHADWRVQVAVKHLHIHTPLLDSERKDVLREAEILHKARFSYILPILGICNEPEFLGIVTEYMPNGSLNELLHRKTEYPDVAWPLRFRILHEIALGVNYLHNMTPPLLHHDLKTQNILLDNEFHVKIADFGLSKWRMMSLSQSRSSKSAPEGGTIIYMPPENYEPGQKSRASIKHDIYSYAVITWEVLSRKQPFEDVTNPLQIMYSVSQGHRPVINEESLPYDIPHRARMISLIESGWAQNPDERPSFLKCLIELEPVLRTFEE
row,SMILES,IC50
1,"CN(C)C(=O)c1ccc2ncnc(Oc3ccc(CC(=O)Nc4cnn(C(C)(C)C)c4)c(F)c3)c2c1 [Compound 26, 4-(4-(2-((1-(tert-butyl)-1H-pyrazol-4-yl)amino)-2-oxoethyl)-3-fluorophenoxy)-N,N-dimethylquinazoline-6-carboxamide]",0.021 µM
2,"CC(C)(C)n1cc(NC(=O)Cc2ccc(Oc3ncnc4ccc(C(=O)N5CCCC5)cc34)cc2F)cn1 [Compound 27, N-(1-(tert-butyl)-1H-pyrazol-4-yl)-2-(2-fluoro-4-((6-(pyrrolidine-1-carbonyl)quinazolin-4-yl)oxy)phenyl) acetamide]",0.0192 µM
3,"COc1ccc2ncnc(Oc3ccc(CC(=O)Nc4cc(C(C)(C)C)ccn4)c(F)c3)c2c1 [Compound 28, N-(4-(tert-butyl)pyridin-2-yl)-2-(2-fluoro-4-((6-methoxy-quinazolin-4-yl)oxy)phenyl) acetamide]",0.0127 µM
4,"COc1ccc2ncnc(Oc3cnc(CC(=O)Nc4cc(C(C)(C)C)cnn4)c(F)c3)c2c1 [Compound 31, N-(5-(tert-butyl)pyridazin-3-yl)-2-(3-fluoro-5-((6-methoxy-quinazolin-4-yl)oxy)pyridin-2-yl)acetamide]",0.0198 µM
5,"COc1ccc2ncnc(Oc3ccc(CC(=O)Nc4cc(C(C)(C)C)ncn4)c(F)c3)c2c1 [Compound 32, N-(6-(tert-butyl)pyrimidin-4-yl)-2-(2-fluoro-4-((6-methoxyquinazolin-4-yl)oxy)phenyl)acetamide]",0.0137 µM
6,"COc1ccc2ncnc(Oc3cnc(CC(=O)Nc4cc(C(C)(C)C)ncn4)c(F)c3)c2c1 [Compound 33, N-(6-(tert-butyl)pyrimidin-4-yl)-2-(3-fluoro-5-((6-methoxy-quinazolin-4-yl)oxy)pyridin-2-yl)acetamide]",0.0854 µM
7,"COc1ccc2ncnc(Oc3ccc(CC(=O)Nc4cc(C5(C(F)(F)F)CC5)ccn4)c(F)c3)c2c1 [Compound 34, 2-(2-fluoro-4-((6-methoxyquinazolin-4-yl)oxy)phenyl)-N-(4-(1-(trifluoromethyl)cyclopropyl)pyridin-2-yl)acetamide]",0.0333 µM
8,"COc1ccc2ncnc(Oc3ccc(CC(=O)Nc4cc(C(C)(C)CO)ccn4)c(F)c3)c2c1 [Compound 35, 2-(2-fluoro-4-((6-methoxy-quinazolin-4-yl)oxy)phenyl)-N-(4-(1-hydroxy-2-methylpropan-2-yl)pyridin-2-yl)acetamide]",0.0296 µM
9,"C[S+]([O-])c1ccc2ncnc(Oc3ccc(CC(=O)Nc4cnn(C(C)(C)C)c4)c(F)c3)c2c1 (stereo not drawn) [Compound 44, N-(1-(tert-butyl)-1H-pyrazol-4-yl)-2-(2-fluoro-4-((6-(methylsulfinyl)quinazolin-4-yl)oxy)phenyl)acetamide]",0.0262 µM
10,"CC(C)(C)n1cc(NC(=O)Cc2ccc(Oc3ncnc4ccc(OC5COC5)cc34)cc2F)cn1 [Compound 49, N-(1-(tert-butyl)-1H-pyrazol-4-yl)-2-(2-fluoro-4-((6-(oxetan-3-yloxy)quinazolin-4-yl)oxy)phenyl) acetamide]",0.0185 µM
11,"COCCOc1ccc2ncnc(Oc3ccc(CC(=O)Nc4cnn(C(C)(C)C)c4)c(F)c3)c2c1 [Compound 50, N-(1-(tert-butyl)-1H-pyrazol-4-yl)-2-(2-fluoro-4-((6-(2-methoxy-ethoxy)quinazolin-4-yl)oxy)phenyl) acetamide]",0.0154 µM
12,"CC(C)(C)n1cc(NC(=O)Cc2ncc(Oc3ncnc4ccc(OC5CCNCC5)cc34)cc2F)cn1 [Compound 51, N-(1-(tert-butyl)-1H-pyrazol-4-yl)-2-(3-fluoro-5-((6-(piperidin-4-yloxy)quinazolin-4-yl)oxy)pyridin-2-yl)acetamide]",0.0187 µM
13,"CC(C)(C)c1cc(NC(=O)Cc2ncc(Oc3ncnc4ccc(F)cc34)cc2F)ncn1 [Compound 52, N-(6-(tert-butyl)pyrimidin-4-yl)-2-(3-fluoro-5-((6-fluoroquinazolin-4-yl)oxy)pyridin-2-yl)acetamide]",0.0541 µM
14,"Cc1nc(NC(=O)Cc2ncc(Oc3ncnc4ccc(F)cc34)cc2F)cc(C(C)(C)C)n1 [Compound 53, N-(6-(tert-butyl)-2-methylpyrimidin-4-yl)-2-(3-fluoro-5-((6-fluoroquinazolin-4-yl)oxy)pyridin-2-yl)acetamide]",0.225 µM
15,"Cc1cc(CC(=O)Nc2cc(C(C)(C)C)ncn2)ccc1Oc1ncnc2ccc(F)cc12 [Compound 54, N-(6-(tert-butyl)pyrimidin-4-yl)-2-(4-((6-fluoroquinazolin-4-yl)oxy)-3-methylphenyl) acetamide]",0.0541 µM
16,"Cc1cc(CC(=O)Nc2cc(C(C)(C)C)cnn2)ccc1Oc1ncnc2ccc(F)cc12 [Compound 55, N-(5-(tert-butyl)pyridazin-3-yl)-2-(4-((6-fluoroquinazolin-4-yl)oxy)-3-methylphenyl) acetamide]",0.0245 µM
17,"CN1CC[C@H](Oc2ccc3ncnc(Oc4cnc(CC(=O)Nc5cnn(C(C)(C)C)c5)c(F)c4)c3c2)C1 [Compound 59, (S)-N-(1-(tert-butyl)-1H-pyrazol-4-yl)-2-(3-fluoro-5-((6-((1-methylpyrrolidin-3-yl)oxy)quinazolin-4-yl)oxy)pyridin-2-yl)acetamide]",0.0415 µM
18,"CN1CC[C@@H](Oc2ccc3ncnc(Oc4cnc(CC(=O)Nc5cnn(C(C)(C)C)c5)c(F)c4)c3c2)C1 [Compound 60, (R)-N-(1-(tert-butyl)-1H-pyrazol-4-yl)-2-(3-fluoro-5-((6-((1-methylpyrrolidin-3-yl)oxy)quinazolin-4-yl)oxy)pyridin-2-yl)acetamide]",0.0457 µM

# Compounds with a lower IC50, results first:
row,IC50,SMILES
1,0.0052 µM,"COc1ccc2ncnc(Oc3cnc(CC(=O)Nc4cc(C(C)(C)C)ccn4)c(F)c3)c2c1 [Compound 29, N-(4-(tert-butyl)pyridin-2-yl)-2-(3-fluoro-5-((6-methoxy-quinazolin-4-yl)oxy)pyridin-2-yl)acetamide]"
2,0.0072 µM,"COc1ccc2ncnc(Oc3ccc(CC(=O)Nc4cc(C(C)(C)C)cnn4)c(F)c3)c2c1 [Compound 30, N-(5-(tert-butyl)pyridazin-3-yl)-2-(2-fluoro-4-((6-methoxy-quinazolin-4-yl)oxy)phenyl) acetamide]"
3,0.0047 µM,"CC(C)(C)n1cc(NC(=O)Cc2ccc(Oc3ccnc4ccc(P(C)(C)=O)cc34)cc2F)cn1 [Compound 36, N-(1-(tert-butyl)-1H-pyrazol-4-yl)-2-(4-((6-(dimethylphosphoryl)quinolin-4-yl)oxy)-2-fluorophenyl)acetamide]"
4,0.0078 µM,"COc1ccc2ncnc(Oc3ccc(CC(=O)Nc4cc(C(C)(C)C)n(C)n4)c(F)c3)c2c1 [Compound 37, N-(5-(tert-butyl)-1-methyl-1H-pyrazol-3-yl)-2-(2-fluoro-4-((6-methoxy-quinazolin-4-yl)oxy)phenyl) acetamide]"
5,< 0.0025 µM,"COc1cc2nccc(Oc3ccc(CC(=O)Nc4cnn(C(C)(C)C)c4)c(F)c3)c2cc1S(C)(=O)=O [Compound 39, N-(1-(tert-butyl)-1H-pyrazol-4-yl)-2-(2-fluoro-4-((7-methoxy-6-(methylsulfonyl)quinolin-4-yl)oxy)phenyl)acetamide]"
6,< 0.0025 µM,"Cn1nc(NC(=O)Cc2ccc(Oc3ccnc4ccc(S(C)(=O)=O)cc34)cc2F)cc1C(C)(C)C [Compound 40, N-(5-(tert-butyl)-1-methyl-1H-pyrazol-3-yl)-2-(2-fluoro-4-((6-(methylsulfonyl)quinolin-4-yl)oxy)phenyl)acetamide]"
7,0.0076 µM,"Cn1nc(NC(=O)Cc2ncc(Oc3ccnc4ccc(S(C)(=O)=O)cc34)cc2F)cc1C(C)(C)C [Compound 41, N-(5-(tert-butyl)-1-methyl-1H-pyrazol-3-yl)-2-(3-fluoro-5-((6-(methylsulfonyl)quinolin-4-yl)oxy)pyridin-2-yl)acetamide]"
8,0.0055 µM,"CC(C)(C)c1cc(NC(=O)Cc2ncc(Oc3ccnc4ccc(S(C)(=O)=O)cc34)cc2F)n[nH]1 [Compound 42, N-(5-(tert-butyl)-1H-pyrazol-3-yl)-2-(3-fluoro-5-((6-(methylsulfonyl)quinolin-4-yl)oxy)pyridin-2-yl)acetamide]"
9,< 0.0025 µM,"C[S+]([O-])c1ccc2nccc(Oc3ccc(CC(=O)Nc4cnn(C(C)(C)C)c4)c(F)c3)c2c1 (stereo not drawn) [Compound 45, N-(1-(tert-butyl)-1H-pyrazol-4-yl)-2-(2-fluoro-4-((6-(methylsulfinyl)quinolin-4-yl)oxy)phenyl)acetamide]"
10,< 0.0025 µM,"CC(C)(C)n1cc(NC(=O)Cc2ccc(Oc3ccnc4ccc(S(N)(=O)=O)cc34)cc2F)cn1 [Compound 46, N-(1-(tert-butyl)-1H-pyrazol-4-yl)-2-(2-fluoro-4-((6-sulfamoylquinolin-4-yl)oxy)phenyl)acetamide]"
11,0.0039 µM,"COc1ccc2ncnc(Oc3ccc(CC(=O)Nc4cnn(C(C)(C)C)c4)c(F)c3F)c2c1 [Compound 47, N-(1-(tert-butyl)-1H-pyrazol-4-yl)-2-(2,3-difluoro-4-((6-methoxy-quinazolin-4-yl)oxy)phenyl) acetamide]"
12,0.0092 µM,"CCOc1ccc2nccc(Oc3cnc(CC(=O)Nc4cnn(C(C)(C)C)c4)c(F)c3)c2c1 [Compound 48, N-(1-(tert-butyl)-1H-pyrazol-4-yl)-2-(5-((6-ethoxyquinolin-4-yl)oxy)-3-fluoropyridin-2-yl)acetamide]"
13,0.0049 µM,"CCN1CCC(Oc2ccc3ncnc(Oc4cnc(CC(=O)Nc5cnn(C(C)(C)C)c5)c(F)c4)c3c2)CC1 [Compound 56, N-(1-(tert-butyl)-1H-pyrazol-4-yl)-2-(5-((6-((1-ethylpiperidin-4-yl)oxy)quinazolin-4-yl)oxy)-3-fluoropyridin-2-yl)acetamide]"
14,< 0.0025 µM,"CN1CCC(Oc2ccc3ncnc(Oc4cnc(CC(=O)Nc5cc(C(C)(C)C)[nH]n5)c(F)c4)c3c2)CC1 [Compound 57, N-(5-(tert-butyl)-1H-pyrazol-3-yl)-2-(3-fluoro-5-((6-((1-methylpiperidin-4-yl)oxy)quinazolin-4-yl)oxy)pyridin-2-yl)acetamide]"
15,0.0037 µM,"CC(C)(C)c1cc(NC(=O)Cc2ncc(Oc3ncnc4ccc(OC5CCNCC5)cc34)cc2F)n[nH]1 [Compound 58, N-(5-(tert-butyl)-1H-pyrazol-3-yl)-2-(3-fluoro-5-((6-(piperidin-4-yloxy)quinazolin-4-yl)oxy)pyridin-2-yl)acetamide]"
